# Experimental data reported in patent publication US12134587B2, “Reaction products and methods for making and using the same” (KOCH AGRONOMIC SERVICES, LLC, priority 2010, dated 2024).
# Tested on: nitrification of ammonium to nitrate in Greenville loamy soil
# Test: Soil incubation test of nitrogen transformations (ammonium-N and nitrate-N)
# Protocol: Three reaction products (Ex. 1-3) mixed with a urea solution to produce a liquid fertilizer solution were prepared and incubation tests were conducted. A comparative example of a urea only solution, i.e., a urea solution without a reaction product (C1), and a comparative example of a urea solution mixed with dicyandiamide (DCD) (C2) were also prepared and evaluated. For comparative example C2, the urea solution mixed with DCD was not reacted. In other words, the DCD was mixed with the urea solution to provide the fertilizer. A Control was also prepared that consisted of soil, i.e., no nitrogen source nor reaction product was added.
# Incubation tests were performed using each Example 1-3 to evaluate the nitrogen transformations for each sample. The effect of each reaction product (Ex. 1-3) on the nitrogen concentration in the soil as both ammonium-nitrogen and nitrate-nitrogen were evaluated at three different concentrations of the reaction products. More particularly, the concentration of DCD for a first set of samples was 0.75 wt. % (Table 1), a second set of samples was 1.5 wt. % (Table 2), and a third set of samples was 3 wt. % (Table 3), where the weight percents of the DCD concentration are based on the total weight of nitrogen in the urea solution.
# The soil used in the incubation tests was Greenville loamy soil (clay-loam, siliceous, thermic Plinthic Kandiudults). […] The phosphorous and sulfur concentrations were determined according to the Bray-1 test. The zinc concentration was determined according to the DTPA (diethylenetriaminepentaacetic acid) soil test.
# As used herein, the term “field capacity,” refers to the drained upper limit or moisture content below which there is no free drainage flow. During the one week incubation period the moisture was reduced to about 80%. For each test 50 g of soil was placed into a cup and each cup was covered with a lid having four holes to allow for aeration and to minimize water loss.
# Stock solutions containing each example were prepared by adding 2.15 g of urea and the corresponding amount of DCD (C2) or the reaction product (Ex. 1-3) to a 500 mL beaker to provide samples having 0.75 wt. % (Table 1), 1.5 wt. % (Table 2), and 3 wt. % (Table 3) DCD based on the total nitrogen concentration in the urea solution. After adding the urea (C1), urea plus DCD (C2), and urea plus the reaction products (Ex. 1-3), to the beakers, the contents of each beaker were diluted to 500 mL with distilled water to provide a stock solution. For the examples shown in Tables 1-3 below, 5 mL of the corresponding stock solution were introduced via a pipette onto each 50 g soil sample and the cover was placed thereon. The amount of nitrogen contained in each example (Ex. 1-3, C1, and C2) was 10 mg and the nitrogen was in the form of urea. The soil had at least an 80% field moisture capacity for each sample and if needed additional distilled water was used in order to achieve the 80% field moisture capacity.
# Soil extractions were made at 1 week intervals to determine the amount of ammonium-nitrogen and nitrate-nitrogen in each example. A total of 10 extractions were performed, namely at time=0 and after the 1st week, 2nd week, 3rd week, 4th week, 5th week, 6th week, 7th week, 8th week, and the […]. Extracting the nitrogen from each sample was done by adding 100 mL of a 2M potassium chloride (KCl) solution to each soil sample to be tested. The amount of nitrogen in the form of ammonium (NH4^+) and nitrate (NO3^−) were then determined.
# The amount of ammonium was determined using the well-known Berthelot reaction in which ammonia is chlorinated to monochloroamine, which then reacts with salicylate to form 5-aminosalicylate. After oxidation and oxidative coupling, a green color complex was formed which was measured at 660 nm using a spectrophotometer.
# The determination of nitrate was determined based on the reduction of nitrate (NO3) to […] (NO2) by hydrazinium sulfate or cadmium metal. […]
# [1] = 0.75 wt. % DCD based on nitrogen in urea solution, Wk. 0
# [2] = 1.5 wt. % DCD Based on the Weight of Nitrogen in the Fertilizer, Wk. 0
# [3] = 3 wt. % DCD Based on the Weight of Nitrogen in the Fertilizer, Wk. 0
compound,measurement,setting,value
"NC(N)=O [C1, urea]",Ammonium (NH4^+),[1],0.39 mg N
same,Nitrate (NO3^−),[1],1.27 mg N
same,Ammonium (NH4^+),"0.75 wt. % DCD, Wk. 1",6.81 mg N
same,Nitrate (NO3^−),"0.75 wt. % DCD, Wk. 1",3.61 mg N
same,Ammonium (NH4^+),"0.75 wt. % DCD, Wk. 2",4.21 mg N
same,Nitrate (NO3^−),"0.75 wt. % DCD, Wk. 2",6.37 mg N
same,Ammonium (NH4^+),"0.75 wt. % DCD, Wk. 3",2.14 mg N
same,Nitrate (NO3^−),"0.75 wt. % DCD, Wk. 3",8.38 mg N
same,Ammonium (NH4^+),"0.75 wt. % DCD, Wk. 4",0.18 mg N
same,Nitrate (NO3^−),"0.75 wt. % DCD, Wk. 4",10.45 mg N
same,Ammonium (NH4^+),"0.75 wt. % DCD, Wk. 5",0.08 mg N
same,Nitrate (NO3^−),"0.75 wt. % DCD, Wk. 5",10.69 mg N
same,Ammonium (NH4^+),"0.75 wt. % DCD, Wk. 6",0.08 mg N
same,Nitrate (NO3^−),"0.75 wt. % DCD, Wk. 6",10.66 mg N
same,Ammonium (NH4^+),"0.75 wt. % DCD, Wk. 7",0.09 mg N
same,Nitrate (NO3^−),"0.75 wt. % DCD, Wk. 7",10.85 mg N
same,Ammonium (NH4^+),"0.75 wt. % DCD, Wk. 8",0.10 mg N
same,Nitrate (NO3^−),"0.75 wt. % DCD, Wk. 8",10.97 mg N
same,Ammonium (NH4^+),"0.75 wt. % DCD, Wk. 10",0.04 mg N
same,Nitrate (NO3^−),"0.75 wt. % DCD, Wk. 10",10.98 mg N
same,Ammonium (NH4^+),[2],0.39 mg N
same,Nitrate (NO3^−),[2],1.27 mg N
same,Ammonium (NH4^+),"1.5 wt. % DCD, Wk. 1",6.81 mg N
same,Nitrate (NO3^−),"1.5 wt. % DCD, Wk. 1",3.61 mg N
same,Ammonium (NH4^+),"1.5 wt. % DCD, Wk. 2",4.21 mg N
same,Nitrate (NO3^−),"1.5 wt. % DCD, Wk. 2",6.37 mg N
same,Ammonium (NH4^+),"1.5 wt. % DCD, Wk. 3",2.14 mg N
same,Nitrate (NO3^−),"1.5 wt. % DCD, Wk. 3",8.38 mg N
same,Ammonium (NH4^+),"1.5 wt. % DCD, Wk. 4",0.18 mg N
same,Nitrate (NO3^−),"1.5 wt. % DCD, Wk. 4",10.45 mg N
same,Ammonium (NH4^+),"1.5 wt. % DCD, Wk. 5",0.08 mg N
same,Nitrate (NO3^−),"1.5 wt. % DCD, Wk. 5",10.69 mg N
same,Ammonium (NH4^+),"1.5 wt. % DCD, Wk. 6",0.08 mg N
same,Nitrate (NO3^−),"1.5 wt. % DCD, Wk. 6",10.66 mg N
same,Ammonium (NH4^+),"1.5 wt. % DCD, Wk. 7",0.09 mg N
same,Nitrate (NO3^−),"1.5 wt. % DCD, Wk. 7",10.85 mg N
same,Ammonium (NH4^+),"1.5 wt. % DCD, Wk. 8",0.10 mg N
same,Nitrate (NO3^−),"1.5 wt. % DCD, Wk. 8",10.97 mg N
same,Ammonium (NH4^+),"1.5 wt. % DCD, Wk. 10",0.04 mg N
same,Nitrate (NO3^−),"1.5 wt. % DCD, Wk. 10",10.98 mg N
same,Ammonium (NH4^+),[3],0.39 mg N
same,Nitrate (NO3^−),[3],1.27 mg N
same,Ammonium (NH4^+),"3 wt. % DCD, Wk. 1",6.81 mg N
same,Nitrate (NO3^−),"3 wt. % DCD, Wk. 1",3.61 mg N
same,Ammonium (NH4^+),"3 wt. % DCD, Wk. 2",4.21 mg N
same,Nitrate (NO3^−),"3 wt. % DCD, Wk. 2",6.37 mg N
same,Ammonium (NH4^+),"3 wt. % DCD, Wk. 3",2.14 mg N
same,Nitrate (NO3^−),"3 wt. % DCD, Wk. 3",8.38 mg N
same,Ammonium (NH4^+),"3 wt. % DCD, Wk. 4",0.18 mg N
same,Nitrate (NO3^−),"3 wt. % DCD, Wk. 4",10.45 mg N
same,Ammonium (NH4^+),"3 wt. % DCD, Wk. 5",0.08 mg N
same,Nitrate (NO3^−),"3 wt. % DCD, Wk. 5",10.69 mg N
same,Ammonium (NH4^+),"3 wt. % DCD, Wk. 6",0.08 mg N
same,Nitrate (NO3^−),"3 wt. % DCD, Wk. 6",10.66 mg N
same,Ammonium (NH4^+),"3 wt. % DCD, Wk. 7",0.09 mg N
same,Nitrate (NO3^−),"3 wt. % DCD, Wk. 7",10.85 mg N
same,Ammonium (NH4^+),"3 wt. % DCD, Wk. 8",0.10 mg N
same,Nitrate (NO3^−),"3 wt. % DCD, Wk. 8",10.97 mg N
same,Ammonium (NH4^+),"3 wt. % DCD, Wk. 10",0.04 mg N
same,Nitrate (NO3^−),"3 wt. % DCD, Wk. 10",10.98 mg N
